Where two headings read alike, the source gives them in different places. Marks after values point to notes of the source that are not given here.
How the values were obtained:
UACC-62 (Melanoma) = experiment: NCI Developmental Therapeutics antiproliferative assay, UACC-62; format: cell-based, human
Protocol: (§1) Biological Results. The indenoisoquinoline analogues were tested for antiproliferative activity in the National Cancer Institute's Developmental Therapeutics Assay against cell lines derived from approximately 60 different human tumors.

HOP-62 (Lung) = experiment: NCI Developmental Therapeutics antiproliferative assay, HOP-62; format: cell-based, human
Protocol: as §1

DU-145 (Prostate) = experiment: NCI Developmental Therapeutics antiproliferative assay, DU-145; format: cell-based, human
Protocol: as §1

HCT-116 (Colon) = experiment: NCI Developmental Therapeutics antiproliferative assay, HCT-116; format: cell-based, human
Protocol: as §1

MCF7 (Breast) = experiment: NCI Developmental Therapeutics antiproliferative assay, MCF7; format: cell-based, human
Protocol: (§2) Biological Results. The indenoisoquinoline analogues were tested for antiproliferative activity in the National Cancer Institute's Developmental Therapeutics Assay against cell lines derived from approximately 60 different human tumors. […] Results are reported in Table 2 as GI50 values for selected cell lines, and overall antiproliferative potency is quantified as a mean-graph midpoint (MGM).

OVCAR-3 (Ovarian) = experiment: NCI Developmental Therapeutics antiproliferative assay, OVCAR-3; format: cell-based, human
Protocol: as §2

SF-539 (CNS) = experiment: NCI Developmental Therapeutics antiproliferative assay, SF-539; format: cell-based, human
Protocol: as §2

SN12C (Renal) = experiment: NCI Developmental Therapeutics antiproliferative assay, SN12C; format: cell-based, human
Protocol: as §2

[1] = tested on: all human cancer cell lines successfully tested; experiment: NCI-60 cell line assay, mean-graph midpoint; format: cell-based; details: for GI50: read-out: MGM GI50; for MGM (mean graph midpoint for growth inhibition): all human cancer cell lines tested, 10^−8 to 10^−4 molar
Protocol: as §1, with “tumors. […] The cytotoxicities of the compounds to cultured cancer cells were measured in the National Cancer Institute's 60 cell line assay (a.k.a. NCI-60).” for “tumors.”

[2] = tested on: cell lines derived from approximately 60 different human tumors; experiment: NCI initial one-dose screening assay; format: cell-based; details: percentage of cell growth, one-dose assay at 10 μM
[3] = Homo sapiens, UACC-62, 50% growth inhibition, read-out: Cytotoxicity (GI50) Melanoma UACC-62
[4] = Homo sapiens, HOP-62, 50% growth inhibition, read-out: Cytotoxicity (GI50) Lung HOP-62
[5] = Homo sapiens, DU-145, 50% growth inhibition, read-out: Cytotoxicity (GI50) Prostate DU-145
[6] = Homo sapiens, HCT-116, 50% growth inhibition, read-out: Cytotoxicity (GI50) Colon HCT-116
[7] = Homo sapiens, MCF7, 50% growth inhibition, read-out: Cytotoxicity (GI50) Breast MCF7
[8] = Homo sapiens, OVCAR-3, 50% growth inhibition, read-out: Cytotoxicity (GI50) Ovarian OVCAR-3
[9] = Homo sapiens, SF-539, 50% growth inhibition, read-out: Cytotoxicity (GI50) CNS SF-539
[10] = Homo sapiens, SN12C, 50% growth inhibition, read-out: Cytotoxicity (GI50) Renal SN12C

## O=C1c2ccccc2-c2c1c1ccccc1c(=O)n2CC(O)CO (racemic) [Compound 12c, (2′RS)-5,6-Dihydro-6-[(2′,3′-dihydroxypropyl)]-5,11-dioxo-11H-indeno[1,2-c]isoquinoline]
UACC-62 (Melanoma); [3]
  GI50: 7.58 µM
HOP-62 (Lung); [4]
  GI50: 7.76 µM
DU-145 (Prostate); [5]
  GI50: 2.88 µM
HCT-116 (Colon); [6]
  GI50: 4.36 µM
MCF7 (Breast); [7]
  GI50: 3.55 µM
OVCAR-3 (Ovarian); [8]
  GI50: 18.6 µM
SF-539 (CNS); [9]
  GI50: 5.89 µM
SN12C (Renal); [10]
  GI50: 2.95 µM
[1]; Homo sapiens
  GI50: 5.13 µM
[1]
  MGM (mean graph midpoint for growth inhibition): 5.13 µM

## O=C1c2ccccc2-c2c1c1ccccc1c(=O)n2C[C@@H](O)[C@H](O)[C@H](O)CO [Compound 17a, (2′R, 3′S, 4′R)-5,6-Dihydro-6-(2′,3′,4′,5′-tetrahydroxypentyl)-5,11-dioxo-11H-indeno[1,2-c]isoquinoline]
UACC-62 (Melanoma)
  GI50: 7.41 µM
HOP-62 (Lung)
  GI50: 8.71 µM
[2]
  Growth Percent: 58.44%
MCF7 (Breast)
  GI50: 4.57 µM
OVCAR-3 (Ovarian)
  GI50: > 100 µM
SF-539 (CNS)
  GI50: 7.59 µM
SN12C (Renal)
  GI50: 20 µM
[1]
  MGM (mean graph midpoint for growth inhibition): 19.9 µM

## O=C1c2ccccc2-c2c1c1ccccc1c(=O)n2C[C@H](O)[C@H](O)[C@H](O)CO [Compound 17b, (2′S,3′S,4′R)-5,6-Dihydro-6-(2′,3′,4′,5′-tetrahydroxypentyl)-5,11-dioxo-11H-indeno[1,2-c]isoquinoline]
UACC-62 (Melanoma)
  GI50: 3.23 µM
[2]
  Growth Percent: 17.28%
MCF7 (Breast)
  GI50: 1.38 µM
OVCAR-3 (Ovarian)
  GI50: 13.5 µM
SF-539 (CNS)
  GI50: 2.14 µM
SN12C (Renal)
  GI50: 2.4 µM
[1]
  MGM (mean graph midpoint for growth inhibition): 3.31 µM

## O=C1c2ccccc2-c2c1c1ccccc1c(=O)n2C[C@H](O)[C@@H](O)[C@H](O)[C@H](O)CO [Compound 17c, (2′S,3′R,4′R,5′R)-5,6-Dihydro-6-(2′,3′,4′,5′,6′-pentahydroxyhexyl)-5,11-dioxo-11H-indeno[1,2-c]isoquinoline]
[2]
  Growth Percent: 97.16^e %

## O=C1c2ccccc2-c2c1c1ccccc1c(=O)n2C[C@H](O)[C@@H](O)[C@H](O)CO [Compound 17d, (2′S,3′R,4′R)-5,6-Dihydro-6-(2′,3′,4′,5′-tetrahydroxypentyl)-5,11-dioxo-11H-indeno[1,2-c]isoquinoline]
HOP-62 (Lung)
  GI50: 3.23 µM
[2]
  Growth Percent: 34.91%
MCF7 (Breast)
  GI50: 1.74 µM
OVCAR-3 (Ovarian)
  GI50: 24 µM
SF-539 (CNS)
  GI50: 7.94 µM
SN12C (Renal)
  GI50: 2.24 µM
[1]
  MGM (mean graph midpoint for growth inhibition): 4.07 µM

## O=C1c2ccccc2-c2c1c1ccccc1c(=O)n2C[C@@H](O)[C@@H](O)[C@H](O)CO [Compound 17e, (2′R,3′R,4′R)-5,6-Dihydro-6-(2′,3′,4′,5′-tetrahydroxypentyl)-5,11-dioxo-11H-indeno[1,2-c]isoquinoline]
UACC-62 (Melanoma)
  GI50: 6.31 µM
HOP-62 (Lung)
  GI50: 6.46 µM
[2]
  Growth Percent: 50.62%
MCF7 (Breast)
  GI50: 1.9 µM
OVCAR-3 (Ovarian)
  GI50: 13.2 µM
SF-539 (CNS)
  GI50: 11.2 µM
SN12C (Renal)
  GI50: 5.01 µM
[1]
  MGM (mean graph midpoint for growth inhibition): 7.76 µM

## O=C1c2ccccc2-c2c1c1ccccc1c(=O)n2C[C@@H](O)[C@@H](O)[C@H](O)[C@H](O)CO [Compound 17f, (2′R, 3′R, 4′R, 5′R)-5,6-Dihydro-6-(2′,3′,4′,5′,6′-pentahydroxyhexyl)-5,11-dioxo-11H-indeno[1,2-c]isoquinoline]
[2]
  Growth Percent: 69.35%

## O=C1c2ccccc2-c2c1c1ccccc1c(=O)n2C[C@H](O)[C@@H](O)[C@@H](O)CO [Compound 17g, (2′S,3′R,4′S,5′R)-5,6-Dihydro-6-(2′,3′,4′,5′-tetrahydroxypentyl)-5,11-dioxo-11H-indeno[1,2-c]isoquinoline]
[2]
  Growth Percent: 67.99%

## O=C1c2ccccc2-c2c1c1ccccc1c(=O)n2C[C@H](O)[C@H](O)[C@H](O)[C@H](O)CO [Compound 17h, (2′S,3′S,4′R,5′R)-5,6-Dihydro-6-(2′,3′,4′,5′,6′-pentahydroxyhexyl)-5,11-dioxo-11H-indeno[1,2-c]isoquinoline]
UACC-62 (Melanoma)
  GI50: 2.95 µM
HOP-62 (Lung)
  GI50: 3.23 µM
DU-145 (Prostate)
  GI50: 3.31 µM
[2]
  Growth Percent: 49.31%
HCT-116 (Colon)
  GI50: 4.17 µM
MCF7 (Breast)
  GI50: 1.78 µM
OVCAR-3 (Ovarian)
  GI50: 13.8 µM
SF-539 (CNS)
  GI50: 5.75 µM
SN12C (Renal)
  GI50: 3.39 µM
[1]
  MGM (mean graph midpoint for growth inhibition): 5.75 µM

## O=C1c2ccccc2-c2c1c1ccc([N+](=O)[O-])cc1c(=O)n2C[C@H](O)[C@@H](O)[C@H](O)[C@H](O)CO [Compound 19, (2′S,3′R,4′R,5′R)-5,6-Dihydro-6-(2′,3′,4′,5′,6′-pentahydroxyhexyl)-3-nitro-5,11-dioxo-11H-indeno[1,2-c]isoquinoline]
UACC-62 (Melanoma); [3]
  GI50: 2.98 µM
HOP-62 (Lung); [4]
  GI50: 7.35 µM
DU-145 (Prostate); [5]
  GI50: 4.76 µM
[2]
  Growth Percent: 58.05%
HCT-116 (Colon); [6]
  GI50: 5.08 µM
MCF7 (Breast); [7]
  GI50: 0.88 µM
OVCAR-3 (Ovarian); [8]
  GI50: 4.26 µM
SF-539 (CNS); [9]
  GI50: 2.61 µM
SN12C (Renal); [10]
  GI50: 17.7 µM
[1]
  MGM (mean graph midpoint for growth inhibition): 4.60 ± 0.53 µM

## O=C(CO)Cn1c2c(c3ccccc3c1=O)C(=O)c1ccccc1-2 [Compound 25, 5,6-Dihydro-6-(3′-hydroxy-2′-oxopropyl)-5,11-dioxo-11H-indeno[1,2-c]isoquinoline]
UACC-62 (Melanoma); [3]
  GI50: 58.9 µM
HOP-62 (Lung); [4]
  GI50: 40.7 µM
DU-145 (Prostate); [5]
  GI50: 17.8 µM
[2]
  Growth Percent: 72.36%
HCT-116 (Colon); [6]
  GI50: 30.9 µM
MCF7 (Breast); [7]
  GI50: 32.3 µM
OVCAR-3 (Ovarian); [8]
  GI50: 5.23 µM
SF-539 (CNS); [9]
  GI50: 20 µM
SN12C (Renal); [10]
  GI50: 81.3 µM
[1]
  MGM (mean graph midpoint for growth inhibition): 20.9 µM

## C[C@@H](O)Cn1c2c(c3ccccc3c1=O)C(=O)c1ccccc1-2 [Compound 27a, (2′R)-5,6-Dihydro-6-(2′-hydroxypropyl)-5,11-dioxo-11H-indeno[1,2-c]isoquinoline]
UACC-62 (Melanoma)
  GI50: 10.2 µM
HOP-62 (Lung)
  GI50: 3.39 µM
DU-145 (Prostate)
  GI50: 8.32 µM
[2]
  Growth Percent: 55.23%
HCT-116 (Colon)
  GI50: 5.52 µM
MCF7 (Breast)
  GI50: 3.23 µM
OVCAR-3 (Ovarian)
  GI50: 21.4 µM
SF-539 (CNS)
  GI50: 6.31 µM
SN12C (Renal)
  GI50: 9.33 µM
[1]
  MGM (mean graph midpoint for growth inhibition): 10.2 µM

## C[C@H](O)Cn1c2c(c3ccccc3c1=O)C(=O)c1ccccc1-2 [Compound 27b, (2′S)-5,6-Dihydro-6-(2′-hydroxypropyl)-5,11-dioxo-11H-indeno[1,2-c]isoquinoline]
[2]
  Growth Percent: 54.88%

## C[C@H](O)Cn1c2c(c3ccccc3c1=O)C(=O)c1ccccc1-2 [Compound 27c, (2′RS)-5,6-Dihydro-6-(2′-hydroxypropyl)-5,11-dioxo-11H-indeno[1,2-c]isoquinoline]
UACC-62 (Melanoma)
  GI50: 6.16 µM
HOP-62 (Lung)
  GI50: 3.46 µM
DU-145 (Prostate)
  GI50: 4.36 µM
[2]
  Growth Percent: 50.24%
HCT-116 (Colon)
  GI50: 5.75 µM
MCF7 (Breast)
  GI50: 3.8 µM
OVCAR-3 (Ovarian)
  GI50: 16.2 µM
SF-539 (CNS)
  GI50: 6.76 µM
SN12C (Renal)
  GI50: 3.98 µM
[1]
  MGM (mean graph midpoint for growth inhibition): 7.9 µM

## COc1cc2c3c(n(C[C@H](O)CO)c(=O)c2cc1OC)-c1ccccc1C3=O [Compound 29, (2′S)-5,6-Dihydro-6-(2′,3′-dihydroxypropyl)-2,3-dimethoxy-5,11-dioxo-11H-indeno[1,2-c]isoquinoline]
UACC-62 (Melanoma)
  GI50: 0.144 µM
HOP-62 (Lung)
  GI50: 0.336 µM
DU-145 (Prostate)
  GI50: 0.419 µM
HCT-116 (Colon)
  GI50: 0.23 µM
MCF7 (Breast)
  GI50: 0.097 µM
OVCAR-3 (Ovarian)
  GI50: 0.287 µM
SF-539 (CNS)
  GI50: 0.214 µM
SN12C (Renal)
  GI50: 0.501 µM
[1]
  MGM (mean graph midpoint for growth inhibition): 0.401 ± 0.055 µM
  GI50: 0.401 µM

## O=C1c2ccccc2-c2c1c1ccc([N+](=O)[O-])cc1c(=O)n2C[C@H](O)CO [Compound 30, (2′S)-5,6-Dihydro-6-(2′,3′-dihydroxypropyl)-3-nitro-5,11-dioxo-11H-indeno[1,2-c]isoquinoline]
[1]
  MGM (mean graph midpoint for growth inhibition): 0.156 ± 0.061 µM
  GI50: 0.156 µM

## NCCCn1c2c(c3ccc([N+](=O)[O-])cc3c1=O)C(=O)c1cc3c(cc1-2)OCO3 [reference compound]
[1]; Homo sapiens, Table 3, NCI-60, unit inferred
  GI50: 0.09 ± 0.04 µM

## (1′R)-5,6-Dihydro-6-(3′-hydroxy-1′-methylethyl)-5,11-dioxo-11H-indeno[1,2-c]isoquinoline [Compound 22b]
[2]
  Growth Percent: 78.60%

## (1′RS)-5,6-Dihydro-6-(3′-hydroxy-2′-methylethyl)-5,11-dioxo-11H-indeno[1,2-c]isoquinoline [Compound 22c]
UACC-62 (Melanoma)
  GI50: 11.7 µM
HOP-62 (Lung)
  GI50: 17.6 µM
DU-145 (Prostate)
  GI50: 23.7 µM
HCT-116 (Colon)
  GI50: 15.9 µM
MCF7 (Breast)
  GI50: 34.4 µM
OVCAR-3 (Ovarian)
  GI50: 25.7 µM
SF-539 (CNS)
  GI50: 14.4 µM
SN12C (Renal)
  GI50: 37.1 µM
[1]
  MGM (mean graph midpoint for growth inhibition): 15.6 ± 2.15 µM

Source: patent US9682990B2, “Alcohol-, diol-, and carbohydrate-substituted indenoisoquinolines as topoisomerase I inhibitors” (Purdue Research Foundation, priority 2011, dated 2017)
